From PubChem BioAssay (NCI)
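Assay format: 96-well plates, 48-hour exposure. TGI is the concentration that stops growth completely.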

Tests used:
Assay in all cases: growth of human tumour cells (NCI), 48 h
[1] = tested on: RXF 393 renal
[2] = tested on: UACC-62 melanoma
[3] = tested on: MDA-MB-435
[4] = tested on: SF-295 CNS
[5] = tested on: NCI-H522 lung
[6] = tested on: BT-549 breast
[7] = tested on: A498 renal
[8] = tested on: IGROV1 ovarian
[9] = tested on: MALME-3M melanoma
[10] = tested on: HCT-116 colon
[11] = tested on: M14 melanoma
[12] = tested on: HT29 colon
[13] = tested on: OVCAR-3 ovarian
[14] = tested on: CAKI-1 renal
[15] = tested on: NCI/ADR-RES ovarian
[16] = tested on: U251 CNS
[17] = tested on: HL-60(TB) leukemia
[18] = tested on: NCI-H226 lung
[19] = tested on: HCT-15 colon
[20] = tested on: UO-31 renal
[21] = tested on: SK-MEL-2 melanoma
[22] = tested on: SK-MEL-5 melanoma
[23] = tested on: KM12 colon
[24] = tested on: HOP-62 NSCLC
[25] = tested on: OVCAR-5 ovarian
[26] = tested on: HOP-92 NSCLC
[27] = tested on: MDA-MB-231 breast
[28] = tested on: HS 578T breast
[29] = tested on: DU-145 prostate
[30] = tested on: SK-OV-3 ovarian
[31] = tested on: MOLT-4 leukemia
[32] = tested on: SNB-75 CNS
[33] = tested on: SK-MEL-28 melanoma
[34] = tested on: CCRF-CEM leukemia
[35] = tested on: MDA-N
[36] = tested on: NCI-H23 lung
[37] = tested on: OVCAR-8 ovarian
[38] = tested on: HCC-2998 colon
[39] = tested on: SNB-19 CNS
[40] = tested on: T-47D breast
[41] = tested on: PC-3 prostate
[42] = tested on: SR leukemia
[43] = tested on: NCI-H460 lung
[44] = tested on: SN12C renal
[45] = tested on: COLO 205 colon
[46] = tested on: RPMI-8226 leukemia
[47] = tested on: EKVX NSCLC
[48] = tested on: LOX IMVI melanoma
[49] = tested on: A549 NSCLC
[50] = tested on: SW-620 colon
[51] = tested on: SF-268 CNS
[52] = tested on: K-562 leukemia
[53] = tested on: SF-539 CNS
[54] = tested on: MCF7 breast
[55] = tested on: OVCAR-4 ovarian
[56] = tested on: TK-10 renal
[57] = tested on: 786-0 renal
[58] = tested on: UACC-257 melanoma
[59] = tested on: ACHN renal

In the case of O=C1c2ccccc2C(=O)N1CC(CN1C(=O)c2ccccc2C1=O)(C(=O)OCc1ccccc1)C(=O)OCc1ccccc1, the TGI [1] is reported as over 100 µM, the TGI [2] is reported as over 100 µM and the TGI [3] is reported as over 100 µM. The TGI [4] was over 100 µM, the TGI [5] was over 100 µM and the TGI [6] was over 100 µM. The TGI [7] was over 100 µM, the TGI [8] was over 100 µM and the TGI [9] was over 100 µM. For the same molecule, the TGI [10] was over 100 µM, the TGI [11] was over 100 µM and the TGI [12] was over 100 µM. It also gave a TGI [13] of over 100 µM, a TGI [14] of over 100 µM and a TGI [15] of over 100 µM. The TGI [16] was over 100 µM, the TGI [17] was over 100 µM and the TGI [18] was over 100 µM. For the same molecule, the TGI [19] was over 100 µM, the TGI [20] was over 100 µM and the TGI [21] was over 100 µM. The TGI [22] was over 100 µM, the TGI [23] was over 100 µM and the TGI [24] was over 100 µM. For the same molecule, the TGI [25] was over 100 µM, the TGI [26] was over 100 µM and the TGI [27] was over 100 µM. The TGI [28] was over 100 µM, the TGI [29] was over 100 µM and the TGI [30] was over 100 µM. For the same molecule, the TGI [31] was over 100 µM, the TGI [32] was over 100 µM and the TGI [33] was over 100 µM. For the same molecule, the TGI [34] was over 100 µM, the TGI [35] was over 100 µM and the TGI [36] was over 100 µM. For the same molecule, the TGI [37] was over 100 µM, the TGI [38] was over 100 µM and the TGI [39] was over 100 µM. It also gave a TGI [40] of over 100 µM, a TGI [41] of over 100 µM and a TGI [42] of over 100 µM. The TGI [43] was over 100 µM, the TGI [44] was over 100 µM and the TGI [45] was over 100 µM. It also gave a TGI [46] of over 100 µM.
O=C(O[C@H]1CCN2C[C@H]3C[C@H](CN4C(=O)CCC[C@H]34)[C@@H]2C1)c1ccc(O)cc1 was tested, and the TGI [1] was over 100 µM, the TGI [47] was over 100 µM and the TGI [2] was over 100 µM. It also gave a TGI [3] of over 100 µM, a TGI [48] of over 100 µM and a TGI [4] of over 100 µM. It also gave a TGI [5] of over 100 µM, a TGI [49] of over 100 µM and a TGI [6] of over 100 µM. For the same molecule, the TGI [7] was over 100 µM, the TGI [8] was over 100 µM and the TGI [9] was over 100 µM. It also gave a TGI [10] of over 100 µM, a TGI [50] of over 100 µM and a TGI [11] of over 100 µM. For the same molecule, the TGI [12] was over 100 µM, the TGI [13] was over 100 µM and the TGI [14] was over 100 µM. It also gave a TGI [16] of over 100 µM, a TGI [18] of over 100 µM and a TGI [51] of over 100 µM. It also gave a TGI [52] of over 100 µM, a TGI [19] of over 100 µM and a TGI [20] of over 100 µM. The TGI [21] was over 100 µM, the TGI [23] was over 100 µM and the TGI [24] was over 100 µM. For the same molecule, the TGI [53] was over 100 µM, the TGI [54] was over 100 µM and the TGI [55] was over 100 µM. For the same molecule, the TGI [25] was over 100 µM, the TGI [26] was over 100 µM and the TGI [27] was over 100 µM. For the same molecule, the TGI [28] was over 100 µM, the TGI [29] was over 100 µM and the TGI [30] was over 100 µM. It also gave a TGI [56] of over 100 µM, a TGI [32] of over 100 µM and a TGI [33] of over 100 µM. It also gave a TGI [34] of over 100 µM, a TGI [35] of over 100 µM and a TGI [36] of over 100 µM. It also gave a TGI [37] of over 100 µM, a TGI [57] of over 100 µM and a TGI [38] of over 100 µM. The TGI [39] was over 100 µM, the TGI [58] was over 100 µM and the TGI [59] was over 100 µM. It also gave a TGI [40] of over 100 µM, a TGI [41] of over 100 µM and a TGI [42] of over 100 µM. The TGI [43] was over 100 µM, the TGI [44] was over 100 µM and the TGI [45] was over 100 µM. It also gave a TGI [46] of over 100 µM.
With O=Nc1c(O)cc(Nc2cccnc2)c2ccccc12 the TGI [1] was over 100 µM, the TGI [47] was over 100 µM and the TGI [2] was 55.6 µM. The TGI [3] was over 100 µM, the TGI [48] was over 100 µM and the TGI [4] was over 100 µM. It also gave a TGI [5] of 28 µM, a TGI [49] of over 100 µM and a TGI [6] of over 100 µM. It also gave a TGI [7] of over 100 µM, a TGI [8] of 49.9 µM and a TGI [10] of over 100 µM. The TGI [50] was 45.5 µM, the TGI [11] was over 100 µM and the TGI [12] was 50.9 µM. For the same molecule, the TGI [13] was 11.8 µM, the TGI [14] was over 100 µM and the TGI [15] was 65.1 µM. For the same molecule, the TGI [16] was over 100 µM, the TGI [17] was 5.65 µM and the TGI [18] was over 100 µM. It also gave a TGI [51] of 53.4 µM, a TGI [52] of 58.8 µM and a TGI [19] of 64.1 µM. For the same molecule, the TGI [20] was over 100 µM, the TGI [21] was over 100 µM and the TGI [22] was 11.6 µM. The TGI [23] was 90.6 µM, the TGI [24] was over 100 µM and the TGI [53] was over 100 µM. It also gave a TGI [54] of over 100 µM, a TGI [55] of over 100 µM and a TGI [25] of over 100 µM. The TGI [26] was 68 µM, the TGI [27] was 47.3 µM and the TGI [28] was over 100 µM. The TGI [29] was over 100 µM, the TGI [30] was over 100 µM and the TGI [31] was 41.6 µM. For the same molecule, the TGI [56] was over 100 µM, the TGI [32] was over 100 µM and the TGI [34] was 26.2 µM. The TGI [35] was 76.6 µM, the TGI [36] was 76 µM and the TGI [37] was over 100 µM. It also gave a TGI [57] of over 100 µM, a TGI [38] of 95.4 µM and a TGI [39] of 8.39 µM. The TGI [58] was over 100 µM, the TGI [59] was over 100 µM and the TGI [40] was over 100 µM. It also gave a TGI [41] of over 100 µM, a TGI [43] of over 100 µM and a TGI [44] of over 100 µM. The TGI [45] was 42.5 µM and the TGI [46] was 85 µM.
Cn1c(N=P(c2ccccc2)(c2ccccc2)c2ccccc2)c([N+](=O)[O-])c(=O)n(C)c1=O was tested, and the TGI [1] was over 100 µM, the TGI [47] was over 100 µM and the TGI [2] was over 100 µM. It also gave a TGI [3] of over 100 µM, a TGI [48] of over 100 µM and a TGI [4] of over 100 µM. It also gave a TGI [5] of over 100 µM, a TGI [49] of over 100 µM and a TGI [6] of over 100 µM. The TGI [7] was over 100 µM, the TGI [8] was over 100 µM and the TGI [9] was over 100 µM. It also gave a TGI [10] of over 100 µM, a TGI [50] of over 100 µM and a TGI [11] of over 100 µM. The TGI [12] was over 100 µM, the TGI [13] was over 100 µM and the TGI [14] was over 100 µM. The TGI [15] was over 100 µM, the TGI [16] was over 100 µM and the TGI [18] was over 100 µM. For the same molecule, the TGI [51] was over 100 µM, the TGI [52] was over 100 µM and the TGI [19] was over 100 µM. The TGI [20] was over 100 µM, the TGI [21] was over 100 µM and the TGI [22] was over 100 µM. The TGI [23] was 80.4 µM, the TGI [24] was over 100 µM and the TGI [53] was over 100 µM. It also gave a TGI [54] of over 100 µM, a TGI [55] of over 100 µM and a TGI [25] of over 100 µM. It also gave a TGI [26] of over 100 µM, a TGI [27] of over 100 µM and a TGI [28] of over 100 µM. The TGI [30] was over 100 µM, the TGI [31] was 66.8 µM and the TGI [56] was over 100 µM. The TGI [32] was 91.8 µM, the TGI [34] was 76.6 µM and the TGI [35] was over 100 µM. It also gave a TGI [36] of over 100 µM, a TGI [37] of 75.3 µM and a TGI [57] of over 100 µM. For the same molecule, the TGI [38] was over 100 µM, the TGI [39] was over 100 µM and the TGI [58] was over 100 µM. The TGI [59] was over 100 µM, the TGI [40] was over 100 µM and the TGI [41] was over 100 µM. It also gave a TGI [43] of over 100 µM, a TGI [44] of over 100 µM and a TGI [45] of over 100 µM. It also gave a TGI [46] of over 100 µM.
